The values below come from US9309248B2, “Azaindolines” (Hoffmann-La Roche Inc., priority 2012, dated 2016).

For one experiment, the target named is T1, BIR2 domain of XIAP (Homo sapiens, UniProt P98170, C202A/C213G).
T1 construct: 6× Histidine-tagged BIR2 domain, corresponding to amino acids 124-240 of XIAP
Kind of experiment: TR-FRET assay for BIR2 (inhibition of binding of XIAP BIR2 domain to SMAC-derived Peptide A). Particulars: 6x Histidine-tagged BIR2 domain (amino acids 124-240 of XIAP) 10 nM, Peptide A 20 nM. The gist of the method:
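Inhibition of binding of the XIAP BIR2 domain (C202A/C213G) to biotinylated SMAC-derived Peptide A was measured. TR-FRET signal was read after 1 h at room temperature.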
For orientation: TR-FRET usually uses a lanthanide donor and a delayed reading to cut background.

In the next experiment the target is T2, BIR3 domain of XIAP (Homo sapiens, UniProt P98170).
T2 construct: BIR3 domain, corresponding to amino acids 241-356 of XIAP
Kind of experiment: TR-FRET assay for BIR3 (inhibition of binding of XIAP BIR3 domain to SMAC-derived Peptide A). The conditions noted are these: 6x Histidine-tagged BIR3 domain (amino acids 241-356 of XIAP) 10 nM, Peptide A 20 nM. Put shortly:
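His6-tagged XIAP BIR3 (aa 241-356, 10 nM) was mixed with 20 nM biotinylated SMAC-derived peptide in 50 mM Tris-Cl pH 7.5, 100 mM NaCl, 1 mM DTT, 0.1 mg/mL BSA and incubated 45 min at 37 °C. Eu-streptavidin (1.5 nM) and APC anti-His (15 nM) were added, with TR-FRET read 1 h later at RT. IC50 came from % inhibition over 10 serial concentrations.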

Usually IC50 stands for the point on the concentration scale where inhibition reaches its midpoint.

T2 sequence (P98170 with tags, fused parts or gaps): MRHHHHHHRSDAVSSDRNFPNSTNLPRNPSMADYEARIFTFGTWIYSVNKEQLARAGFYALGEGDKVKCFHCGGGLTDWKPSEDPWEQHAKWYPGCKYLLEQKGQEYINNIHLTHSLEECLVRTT
T1 sequence (P98170 with tags, fused parts or gaps C202A/C213G): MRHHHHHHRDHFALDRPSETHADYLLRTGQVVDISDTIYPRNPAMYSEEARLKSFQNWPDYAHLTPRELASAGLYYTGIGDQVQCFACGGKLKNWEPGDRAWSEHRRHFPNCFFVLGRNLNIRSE

`CN[C@@H](C)C(=O)N[C@H](C(=O)N1c2ncccc2C[C@H]1C(=O)Nc1c(F)cccc1Cl)C(C)C` [Example 70, (S)-1-[(S)-3-Methyl-2-((S)-2-methylamino-propionylamino)-butyryl]-2,3-dihydro-1H-pyrrolo[2,3-b]pyridine-2-carboxylic acid (2-chloro-6-fluoro-phenyl)-amide]: the values for the IC50 on BIR2 domain of XIAP and on BIR3 domain of XIAP were 21.5 nM and over 54.8 µM, respectively.

In the case of `CN[C@@H](C)C(=O)N[C@H](C(=O)N1c2ncccc2C[C@H]1C(=O)Nc1c(C)cccc1Cl)C(C)C` [Example 71, (S)-1-[(S)-3-Methyl-2-((S)-2-methylamino-propionylamino)-butyryl]-2,3-dihydro-1H-pyrrolo[2,3-b]pyridine-2-carboxylic acid (2-chloro-6-methyl-phenyl)-amide], the IC50 at BIR2 domain of XIAP is 19.2 nM; at BIR3 domain of XIAP, over 54.8 µM.

In the case of `CN[C@@H](C)C(=O)N[C@H](C(=O)N1c2ncccc2C[C@H]1C(=O)Nc1c(Cl)cc(Cl)cc1Cl)C(C)C` [Example 72, (S)-1-[(S)-3-Methyl-2-((S)-2-methylamino-propionylamino)-butyryl]-2,3-dihydro-1H-pyrrolo[2,3-b]pyridine-2-carboxylic acid (2,4,6-trichloro-phenyl)-amide], the IC50 is 13.7 nM at BIR2 domain of XIAP and over 54.8 µM on BIR3 domain of XIAP.

`CN[C@@H](C)C(=O)N[C@H](C(=O)N1c2ncccc2C[C@H]1C(=O)Nc1c(F)cccc1C(F)(F)F)C(C)C` [Example 73, (S)—N-(2-fluoro-6-(trifluoromethyl)phenyl)-1-((S)-3-methyl-2-((S)-2-(methylamino)propanamido)butanoyl)-2,3-dihydro-1H-pyrrolo[2,3-b]pyridine-2-carboxamide]: the IC50 at BIR2 domain of XIAP was 69.1 nM; on BIR3 domain of XIAP, over 54.8 µM.

Regarding `CN[C@@H](C)C(=O)N[C@H](C(=O)N1c2ncccc2C[C@H]1C(=O)Nc1c(Cl)cccc1Cl)C(C)C` [Example 74, (S)-1-[(S)-3-Methyl-2-((S)-2-methylamino-propionylamino)-butyryl]-2,3-dihydro-1H-pyrrolo[2,3-b]pyridine-2-carboxylic acid (2,6-dichloro-phenyl)-amide], the IC50 at BIR2 domain of XIAP is 16.6 nM; on BIR3 domain of XIAP, over 54.8 µM.

For `CN[C@@H](C)C(=O)N[C@H](C(=O)N1c2ncccc2C[C@H]1C(=O)Nc1c(Cl)cccc1C(F)(F)F)C(C)C` [Example 75, (S)-1-[(S)-3-Methyl-2-((S)-2-methylamino-propionylamino)-butyryl]-2,3-dihydro-1H-pyrrolo[2,3-b]pyridine-2-carboxylic acid (2-chloro-6-trifluoromethyl-phenyl)-amide], the half-inhibitory concentration (IC50) at BIR2 domain of XIAP is 57.5 nM; at BIR3 domain of XIAP it was over 54.8 µM.

Take `CCN[C@@H](C)C(=O)N[C@H](C(=O)N1c2ncccc2C[C@H]1C(=O)Nc1ccccc1)C1CCCCC1` [Example 76, (S)-1-[(S)-2-Cyclohexyl-2-((S)-2-ethylamino-propionylamino)-acetyl]-2,3-dihydro-1H-pyrrolo[2,3-b]pyridine-2-carboxylic acid phenylamide]: the IC50 on BIR2 domain of XIAP was 353 nM; on BIR3 domain of XIAP, over 54.8 µM.

Take `CCN[C@@H](C)C(=O)N[C@H](C(=O)N1c2ncccc2C[C@H]1C(=O)Nc1c(F)cccc1F)C(C)C` [Example 77, (S)-1-[(S)-2-((S)-2-Ethylamino-propionylamino)-3-methyl-butyryl]-2,3-dihydro-1H-pyrrolo[2,3-b]pyridine-2-carboxylic acid (2,6-difluoro-phenyl)-amide]: the half-maximal inhibitory concentration (IC50) on BIR2 domain of XIAP is 46.2 nM; on BIR3 domain of XIAP, over 54.8 µM.

`CC[C@H](NC)C(=O)N[C@H](C(=O)N1c2ncccc2C[C@H]1C(=O)Nc1c(F)cccc1F)C(C)C` [Example 78, (S)-1-[(S)-3-Methyl-2-((S)-2-methylamino-butyrylamino)-butyryl]-2,3-dihydro-1H-pyrrolo[2,3-b]pyridine-2-carboxylic acid (2,6-difluoro-phenyl)-amide]: the concentration for half-maximal inhibition (IC50) was 14.2 nM at BIR2 domain of XIAP and over 54.8 µM on BIR3 domain of XIAP.

As for `CN[C@@H](C)C(=O)N[C@H](C(=O)N1c2ncccc2C[C@@H]1C(=O)Nc1ccccc1)C1CCCCC1` [Example 79, (R)-1-[(S)-2-Cyclohexyl-2-((S)-2-methylamino-propionylamino)-acetyl]-2,3-dihydro-1H-pyrrolo[2,3-b]pyridine-2-carboxylic acid phenylamide], the 50% inhibitory concentration (IC50) on BIR2 domain of XIAP is over 54800 nM; at BIR3 domain of XIAP, over 54.8 µM.

Turning to `CN[C@@H](C)C(=O)N[C@H](C(=O)N1c2ncccc2C[C@H]1C(=O)Nc1ccccc1)C1CCCCC1` [Example 80, (S)-1-[(S)-2-Cyclohexyl-2-((S)-2-methylamino-propionylamino)-acetyl]-2,3-dihydro-1H-pyrrolo[2,3-b]pyridine-2-carboxylic acid phenylamide], the IC50 on BIR2 domain of XIAP is 117 nM; on BIR3 domain of XIAP it was over 54.8 µM.

In the case of `CC[C@H](NC)C(=O)N[C@H](C(=O)N1c2ncccc2C[C@@H]1C(=O)Nc1ccccc1)C1CCCCC1` [Example 81, (R)-1-[(S)-2-Cyclohexyl-2-((S)-2-methylamino-butyrylamino)-acetyl]-2,3-dihydro-1H-pyrrolo[2,3-b]pyridine-2-carboxylic acid phenylamide], the half-inhibitory concentration (IC50) is 10400 nM at BIR2 domain of XIAP and over 54.8 µM at BIR3 domain of XIAP.

For the compound `CC[C@H](NC)C(=O)N[C@H](C(=O)N1c2ncccc2C[C@H]1C(=O)Nc1ccccc1)C1CCCCC1` [Example 82, 1-[(S)-2-Cyclohexyl-2-((S)-2-methylamino-butyrylamino)-acetyl]-2,3-dihydro-1H-pyrrolo[2,3-b]pyridine-2-carboxylic acid phenylamide], the results for the 50% inhibitory concentration (IC50) at BIR2 domain of XIAP and at BIR3 domain of XIAP were 105 nM and over 54.8 µM, respectively.

On to `[2H]C([2H])([2H])N[C@@H](CC)C(=O)N[C@H](C(=O)N1c2ncccc2C[C@H]1C(=O)Nc1ccccc1)C1CCCCC1` [Example 83, 1-[(S)-2-Cyclohexyl-2-((S)-2-(d3-methyl)amino-butyrylamino)-acetyl]-2,3-dihydro-1H-pyrrolo[2,3-b]pyridine-2-carboxylic acid phenylamide], for which the IC50 is 52.8 nM on BIR2 domain of XIAP and over 54.8 µM at BIR3 domain of XIAP.

`CC[C@H](NC)C(=O)N[C@H](C(=O)N1c2ncccc2C[C@H]1C(=O)Nc1ccccc1)C(C)C` [Example 85, (S)-1-[(S)-3-Methyl-2-((S)-2-methylamino-butyrylamino)-butyryl]-2,3-dihydro-1H-pyrrolo[2,3-b]pyridine-2-carboxylic acid phenylamide]: the IC50 on BIR2 domain of XIAP is 69.1 nM; at BIR3 domain of XIAP it was over 54.8 µM.

As to `[2H]C([2H])([2H])N[C@@H](CC)C(=O)N[C@H](C(=O)N1c2ncccc2C[C@H]1C(=O)Nc1ccccc1)C(C)C` [Example 86, (S)-1-[(S)-3-Methyl-2-((S)-2-(d3-methyl)amino-butyrylamino)-butyryl]-2,3-dihydro-1H-pyrrolo[2,3-b]pyridine-2-carboxylic acid phenylamide], the figures for the IC50 at BIR2 domain of XIAP and on BIR3 domain of XIAP were 65.6 nM and over 54.8 µM, respectively.

Consider `CCN[C@@H](C)C(=O)N[C@H](C(=O)N1c2ncccc2C[C@H]1C(=O)Nc1ccccc1)C(C)C` [Example 87, (S)-1-[(S)-2-((S)-2-Ethylamino-propionylamino)-3-methyl-butyryl]-2,3-dihydro-1H-pyrrolo[2,3-b]pyridine-2-carboxylic acid phenylamide], for which the IC50 at BIR2 domain of XIAP was 234 nM; on BIR3 domain of XIAP it was over 54.8 µM.

Consider `CCN[C@@H](CC)C(=O)N[C@H](C(=O)N1c2ncccc2C[C@H]1C(=O)Nc1ccccc1)C(C)C` [Example 88, (S)-1-[(S)-2-((S)-2-Ethylamino-butyrylamino)-3-methyl-butyryl]-2,3-dihydro-1H-pyrrolo[2,3-b]pyridine-2-carboxylic acid phenylamide], for which the IC50 was 211 nM at BIR2 domain of XIAP and over 54.8 µM on BIR3 domain of XIAP.

Regarding `CC(C)[C@H](NC(=O)[C@H](C)NCCO)C(=O)N1c2ncccc2C[C@H]1C(=O)Nc1ccccc1` [Example 89, (S)-1-{(S)-2-[(S)-2-(2-Hydroxy-ethylamino)-propionylamino]-3-methyl-butyryl}-2,3-dihydro-1H-pyrrolo[2,3-b]pyridine-2-carboxylic acid phenylamide], the IC50 is 266 nM at BIR2 domain of XIAP and over 54.8 µM on BIR3 domain of XIAP.

Regarding `CC[C@H](NCCO)C(=O)N[C@H](C(=O)N1c2ncccc2C[C@H]1C(=O)Nc1ccccc1)C(C)C` [Example 90, (S)-1-{(S)-2-[(S)-2-(2-Hydroxy-ethylamino)-butyrylamino]-3-methyl-butyryl}-2,3-dihydro-1H-pyrrolo[2,3-b]pyridine-2-carboxylic acid phenylamide], the IC50 at BIR2 domain of XIAP was 1610 nM; on BIR3 domain of XIAP it was over 54.8 µM.

On to `C[C@H](NCCO)C(=O)N[C@H](C(=O)N1c2ncccc2C[C@H]1C(=O)Nc1ccccc1)C1CCCCC1` [Example 91, (S)-1-{(S)-2-Cyclohexyl-2-[(S)-2-(2-hydroxy-ethylamino)-propionylamino]-acetyl}-2,3-dihydro-1H-pyrrolo[2,3-b]pyridine-2-carboxylic acid phenylamide], for which the IC50 at BIR2 domain of XIAP is 155 nM; on BIR3 domain of XIAP, over 54.8 µM.

For the compound `CC(C)[C@H](NC(=O)[C@H](C)NCCS(C)(=O)=O)C(=O)N1c2ncccc2C[C@H]1C(=O)Nc1c(F)cccc1F` [Example 92, (S)-1-{(S)-2-[(S)-2-(2-Methanesulfonyl-ethylamino)-propionylamino]-3-methyl-butyryl}-2,3-dihydro-1H-pyrrolo[2,3-b]pyridine-2-carboxylic acid (2,6-difluoro-phenyl)-amide], the results for the half-inhibitory concentration (IC50) on BIR2 domain of XIAP and on BIR3 domain of XIAP were 2570 nM and over 54.8 µM, respectively.
